Source: BindingDB's records for patent US20250042850 (Athos Therapeutics, 2025)

Columns and labels:
Assay in all cases: Cytochrome P450 Inhibition of VNN1 Inhibitors
Cytochrome P450 2C19 = Cytochrome P450 2C19 (Homo sapiens, UniProt P33261)
Protocol: (§1) Table 3 and 4: The cocktail was incubated in human liver microsome with NADPH regenerating system (NRS) in a shaking bath at 37±2° C. The formation of specific metabolites was monitored by LC/MS/MS. Test compound was added to the cocktail-liver microsome mixture at varying concentrations and its effect on cytochrome P450 activity was determined by analyzing the rate of specific metabolite formation. The percent inhibition was calculated and plotted with reference to the concentration, and the IC50 value for inhibition was derived by fitting the data with a standard sigmoidal dose-response equation via MLA “Quest Graph™ ED50 Calculator.” AAT Bioquest, Inc, 17 Sep. 2020, aatbio.com/tools/ed50-calculator. […] The reliability of the inhibition assay was established by confirming the inhibition of known inhibitors on different P450 enzymes.

Cytochrome P450 1A2 = molecular target: T1, Cytochrome P450 1A2 (Homo sapiens, UniProt P05177)
T1 sequence (P05177 whole entry): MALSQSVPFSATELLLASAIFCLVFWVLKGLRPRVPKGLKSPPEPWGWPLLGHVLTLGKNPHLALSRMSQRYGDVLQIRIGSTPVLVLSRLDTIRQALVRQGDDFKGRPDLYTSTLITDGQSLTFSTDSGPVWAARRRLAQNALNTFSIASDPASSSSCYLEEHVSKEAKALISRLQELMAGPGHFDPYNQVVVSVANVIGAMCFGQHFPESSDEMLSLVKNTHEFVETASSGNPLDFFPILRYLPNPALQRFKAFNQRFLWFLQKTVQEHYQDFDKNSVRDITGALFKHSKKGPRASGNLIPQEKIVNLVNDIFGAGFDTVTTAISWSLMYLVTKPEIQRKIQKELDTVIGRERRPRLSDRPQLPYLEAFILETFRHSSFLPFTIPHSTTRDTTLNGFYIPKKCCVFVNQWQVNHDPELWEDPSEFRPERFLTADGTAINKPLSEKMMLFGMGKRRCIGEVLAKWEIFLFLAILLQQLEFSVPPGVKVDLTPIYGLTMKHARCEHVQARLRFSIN
Protocol: as §1

Cytochrome P450 2C9 = Cytochrome P450 2C9 (Homo sapiens, UniProt P11712)
Chain of Cytochrome P450 2C9 (P11712 whole entry): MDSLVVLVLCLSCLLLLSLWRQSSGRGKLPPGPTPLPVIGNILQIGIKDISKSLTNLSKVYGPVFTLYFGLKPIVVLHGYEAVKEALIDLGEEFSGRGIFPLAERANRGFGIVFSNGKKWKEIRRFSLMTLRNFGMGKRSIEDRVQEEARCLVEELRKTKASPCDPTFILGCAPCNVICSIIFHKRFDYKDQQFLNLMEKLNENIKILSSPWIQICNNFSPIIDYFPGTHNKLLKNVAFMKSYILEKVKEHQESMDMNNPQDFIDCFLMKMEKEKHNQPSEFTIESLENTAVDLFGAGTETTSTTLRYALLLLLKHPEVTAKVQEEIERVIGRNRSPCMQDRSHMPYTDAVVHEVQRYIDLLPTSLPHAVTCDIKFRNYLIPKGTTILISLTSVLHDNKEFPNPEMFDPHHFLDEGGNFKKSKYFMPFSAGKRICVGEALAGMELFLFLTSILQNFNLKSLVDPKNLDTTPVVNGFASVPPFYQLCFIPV
Protocol: as §1

Chain of Cytochrome P450 2C19 (P33261 whole entry): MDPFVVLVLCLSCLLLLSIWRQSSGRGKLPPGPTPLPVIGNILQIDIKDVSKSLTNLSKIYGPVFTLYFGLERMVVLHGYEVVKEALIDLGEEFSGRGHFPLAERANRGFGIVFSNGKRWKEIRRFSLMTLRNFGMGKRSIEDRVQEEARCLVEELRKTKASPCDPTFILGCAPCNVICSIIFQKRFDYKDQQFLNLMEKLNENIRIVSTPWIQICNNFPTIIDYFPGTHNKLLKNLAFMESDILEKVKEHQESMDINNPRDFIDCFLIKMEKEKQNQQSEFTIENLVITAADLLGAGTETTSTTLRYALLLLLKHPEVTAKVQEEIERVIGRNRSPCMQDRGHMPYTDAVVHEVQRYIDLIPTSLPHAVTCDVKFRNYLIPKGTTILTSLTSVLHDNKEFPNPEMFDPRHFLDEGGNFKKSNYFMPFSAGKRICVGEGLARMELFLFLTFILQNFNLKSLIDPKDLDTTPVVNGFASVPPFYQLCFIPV

CC(C)(CO)[C@@H](O)C(=O)n1ccc(C(=O)N2CCCC2)c1 [US20250042850, Compound 10]
IC50 (Cytochrome P450 2C19): 62.6 µM | IC50 (Cytochrome P450 1A2): > 100 µM | IC50 (Cytochrome P450 2C9): > 100 µM
